Experimental data as given in US10968215B2 (SHANGHAI HAIHE PHARMACEUTICAL CO., LTD., priority 2016, dated 2021).
Read-outs that look alike come from different tables or passages of the source.

Columns and labels:
[1] = molecular target: PRC2 complex (EZH2 Y641F/EED/SUZ12/RbAp48/AEBP2) (Homo sapiens (Human), UniProt Q15910, Y641F); test: Activity of a compound to PRC2 complex (EZH2 Y641F), HTRF
[2] = molecular target: PRC2 complex (EZH2/EED/SUZ12/RbAp48/AEBP2) (Homo sapiens (Human), UniProt Q15910); test: Activity of a compound to PRC2 complex (EZH2 wild type), ELISA; assay type: biochemical; conditions: class symbols
Chain of PRC2 complex (EZH2/EED/SUZ12/RbAp48/AEBP2) (Q15910 whole entry): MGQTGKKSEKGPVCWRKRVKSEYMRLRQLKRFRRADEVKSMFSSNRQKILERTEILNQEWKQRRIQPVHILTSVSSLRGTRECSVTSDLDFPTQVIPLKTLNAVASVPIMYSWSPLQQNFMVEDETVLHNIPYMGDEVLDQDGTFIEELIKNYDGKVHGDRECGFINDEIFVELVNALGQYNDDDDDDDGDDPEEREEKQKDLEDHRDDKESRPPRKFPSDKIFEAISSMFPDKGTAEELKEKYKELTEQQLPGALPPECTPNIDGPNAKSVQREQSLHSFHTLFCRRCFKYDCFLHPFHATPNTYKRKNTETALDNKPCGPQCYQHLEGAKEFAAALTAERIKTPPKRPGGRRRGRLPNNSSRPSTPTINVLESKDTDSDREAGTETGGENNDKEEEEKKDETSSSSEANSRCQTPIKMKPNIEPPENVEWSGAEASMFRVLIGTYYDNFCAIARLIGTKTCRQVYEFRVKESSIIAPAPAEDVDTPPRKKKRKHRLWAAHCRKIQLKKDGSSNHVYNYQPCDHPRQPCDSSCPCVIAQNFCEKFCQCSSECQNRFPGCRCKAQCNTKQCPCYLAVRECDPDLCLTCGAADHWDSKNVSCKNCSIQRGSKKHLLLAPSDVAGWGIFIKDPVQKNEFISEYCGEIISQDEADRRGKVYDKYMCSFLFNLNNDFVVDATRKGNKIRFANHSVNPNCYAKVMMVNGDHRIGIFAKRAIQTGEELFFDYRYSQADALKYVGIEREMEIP
Chain of PRC2 complex (EZH2/EED/SUZ12/RbAp48/AEBP2) (O75530 whole entry partner): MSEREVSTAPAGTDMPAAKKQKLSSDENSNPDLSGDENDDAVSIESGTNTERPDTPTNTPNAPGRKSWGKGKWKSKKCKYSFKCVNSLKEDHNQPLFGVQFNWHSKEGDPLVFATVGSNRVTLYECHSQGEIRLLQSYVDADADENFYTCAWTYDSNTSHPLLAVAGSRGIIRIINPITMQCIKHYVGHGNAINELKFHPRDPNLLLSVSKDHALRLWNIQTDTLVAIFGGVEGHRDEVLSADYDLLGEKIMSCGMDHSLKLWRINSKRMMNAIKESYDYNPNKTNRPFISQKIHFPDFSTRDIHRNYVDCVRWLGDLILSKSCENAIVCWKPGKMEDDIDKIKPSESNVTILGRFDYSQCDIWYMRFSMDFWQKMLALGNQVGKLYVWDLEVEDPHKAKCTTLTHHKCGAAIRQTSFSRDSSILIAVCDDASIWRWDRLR
Chain of PRC2 complex (EZH2/EED/SUZ12/RbAp48/AEBP2) (Q15022 whole entry partner): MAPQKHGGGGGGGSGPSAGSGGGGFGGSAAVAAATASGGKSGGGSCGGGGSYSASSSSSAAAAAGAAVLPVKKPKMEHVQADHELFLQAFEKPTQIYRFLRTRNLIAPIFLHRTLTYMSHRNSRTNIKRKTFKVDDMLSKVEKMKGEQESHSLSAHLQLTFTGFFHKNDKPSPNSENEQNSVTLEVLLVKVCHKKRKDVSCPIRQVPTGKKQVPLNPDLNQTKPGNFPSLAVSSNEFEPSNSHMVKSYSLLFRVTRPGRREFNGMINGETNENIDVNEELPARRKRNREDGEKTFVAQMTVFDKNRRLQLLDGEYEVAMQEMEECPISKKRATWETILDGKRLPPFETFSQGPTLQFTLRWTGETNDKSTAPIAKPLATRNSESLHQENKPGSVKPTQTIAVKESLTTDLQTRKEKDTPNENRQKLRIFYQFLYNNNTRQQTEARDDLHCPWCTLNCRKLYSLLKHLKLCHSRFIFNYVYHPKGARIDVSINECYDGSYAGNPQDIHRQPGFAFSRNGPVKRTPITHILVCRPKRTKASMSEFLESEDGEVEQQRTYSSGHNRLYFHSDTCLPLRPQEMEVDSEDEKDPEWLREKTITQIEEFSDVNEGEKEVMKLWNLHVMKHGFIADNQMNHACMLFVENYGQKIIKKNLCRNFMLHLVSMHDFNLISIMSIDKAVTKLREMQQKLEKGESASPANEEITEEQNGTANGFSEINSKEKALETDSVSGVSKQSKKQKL
Chain of PRC2 complex (EZH2/EED/SUZ12/RbAp48/AEBP2) (Q09028 whole entry partner): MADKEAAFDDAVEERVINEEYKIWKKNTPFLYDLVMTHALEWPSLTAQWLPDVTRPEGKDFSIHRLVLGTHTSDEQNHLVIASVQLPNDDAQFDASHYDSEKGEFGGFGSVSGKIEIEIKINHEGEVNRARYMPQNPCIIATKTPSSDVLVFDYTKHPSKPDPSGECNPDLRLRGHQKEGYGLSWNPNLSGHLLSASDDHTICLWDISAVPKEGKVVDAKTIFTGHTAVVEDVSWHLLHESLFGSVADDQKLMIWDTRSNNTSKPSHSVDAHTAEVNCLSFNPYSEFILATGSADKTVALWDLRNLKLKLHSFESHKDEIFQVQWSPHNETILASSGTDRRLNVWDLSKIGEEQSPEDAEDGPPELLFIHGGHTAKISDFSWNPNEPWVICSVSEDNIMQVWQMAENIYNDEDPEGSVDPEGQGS
Chain of PRC2 complex (EZH2/EED/SUZ12/RbAp48/AEBP2) (Q6ZN18 whole entry partner): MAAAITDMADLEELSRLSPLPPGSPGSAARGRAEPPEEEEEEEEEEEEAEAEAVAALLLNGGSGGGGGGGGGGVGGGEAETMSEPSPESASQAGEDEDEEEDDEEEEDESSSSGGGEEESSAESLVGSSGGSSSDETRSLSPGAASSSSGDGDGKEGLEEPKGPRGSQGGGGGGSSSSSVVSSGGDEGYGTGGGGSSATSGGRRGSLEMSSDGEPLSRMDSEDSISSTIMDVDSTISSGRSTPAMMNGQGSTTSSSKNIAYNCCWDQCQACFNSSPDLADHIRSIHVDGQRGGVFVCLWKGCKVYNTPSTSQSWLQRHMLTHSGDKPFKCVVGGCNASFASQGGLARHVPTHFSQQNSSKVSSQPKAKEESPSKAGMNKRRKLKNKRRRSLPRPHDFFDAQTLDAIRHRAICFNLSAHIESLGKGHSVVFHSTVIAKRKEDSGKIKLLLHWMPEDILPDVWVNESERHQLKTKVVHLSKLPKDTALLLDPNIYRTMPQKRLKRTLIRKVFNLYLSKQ

[3] = read-out: IC50 (EZH2_Y641F), EZH2 Y641F PRC2 complex, HTRF, class symbols

Chain of PRC2 complex (EZH2 Y641F/EED/SUZ12/RbAp48/AEBP2) (Q15910 whole entry Y641F): as the sequence (Q15910 whole entry) above, with Y641F counted along it
Chain of PRC2 complex (EZH2 Y641F/EED/SUZ12/RbAp48/AEBP2) (O75530 whole entry partner): as the sequence (O75530 whole entry partner) above
Chain of PRC2 complex (EZH2 Y641F/EED/SUZ12/RbAp48/AEBP2) (Q15022 whole entry partner): as the sequence (Q15022 whole entry partner) above
Chain of PRC2 complex (EZH2 Y641F/EED/SUZ12/RbAp48/AEBP2) (Q09028 whole entry partner): as the sequence (Q09028 whole entry partner) above
Chain of PRC2 complex (EZH2 Y641F/EED/SUZ12/RbAp48/AEBP2) (Q6ZN18 whole entry partner): as the sequence (Q6ZN18 whole entry partner) above

Row | IC50 [1, 3] [nM] | IC50 [2] [nM] | Molecule | IC50 [1] [nM]
1 | 100 to 1000 | 100 to 1000 | Cc1cc(C)c(CNC(=O)c2cc3cccn3c(C(C)OCc3ccsc3)c2C)c(=O)[nH]1 (stereo not shown) [Example 19, N-((4,6-dimethyl-2-oxo-1,2-dihydropyridin-3-yl)methyl)-6-methyl-5-(1-(thiophene-3-ylmethoxy)ethyl)indolizine-7-carboxamide] | 
2 | 100 to 1000 | 100 to 1000 | Cc1cc(C)c(CNC(=O)c2cc3cccn3c(C(C)OCc3ccn(C)n3)c2C)c(=O)[nH]1 (stereo not shown) [Example 20] | 
3 | 100 to 1000 | 100 to 1000 | C#CCOC(C)c1c(C)c(C(=O)NCc2c(C)cc(C)[nH]c2=O)cc2cccn12 (stereo not shown) [Example 4, N-((4,6-dimethyl-2-oxo-1,2-dihydropyridin-3-yl)methyl)-6-methyl-5-(1-(prop-2-yn-1-yloxy)ethyl)indolizine-7-carboxamide] | 
4 | 100 to 1000 | 100 to 1000 | Cc1cc(C)c(CNC(=O)c2cc3cccn3c(C(C)OCc3ccccc3F)c2C)c(=O)[nH]1 (stereo not shown) [Example 11] | 
5 |  | < 100 | Cc1cc(C)c(CNC(=O)c2cc3cc(Br)cn3c(N(C)C3CCOCC3)c2C)c(=O)[nH]1 [Example 57] | 
6 | 100 to 1000 |  | Cc1cc(C)c(CNC(=O)c2cc3cc(-c4ccnn4C)cn3c(C(C)N3CCN(CC(F)(F)F)CC3)c2C)c(=O)[nH]1 (stereo not shown) [Example 84, N-((4,6-dimethyl-2-oxo-1,2-dihydropyridin-3-yl)methyl)-6-methyl-2-(1-methyl-1H-pyrazole-5-yl)-5-(1-(4-(2,2,2-trifluoroethyl)piperazin-1-yl)ethyl)indolizine-7-carboxamide] | 
7 | < 100 |  | COc1cc(C)[nH]c(=O)c1CNC(=O)c1cc2cc(-c3nccn3C)cn2c(C(C)N2CCC(N(C)C)CC2)c1C (stereo not shown) [Example 107] | 
8 | 100 to 1000 |  | Cc1cc(C)c(CNC(=O)c2cc3cccn3c(C(O)c3ccc(Br)cc3)c2C)c(=O)[nH]1 (stereo not shown) [Example 23, 5-((4-bromophenyl)(hydroxy)methyl)-N-((4,6-dimethyl-2-oxo-1,2-dihydropyridin-3-yl)methyl)-6-methylindolizine-7-carboxamide] | 
9 | 100 to 1000 |  | Cc1cc(C)c(CNC(=O)c2cc3cccn3c(C(C)OC3C=CCCC3)c2C)c(=O)[nH]1 (stereo not shown) [Example 7, 5-((cyclohex-2-en-1-yloxy)ethyl)-N-((4,6-dimethyl-2-oxo-1,2-dihydropyridin-3-yl)methyl)-6-methylindolizine-7-carboxamide] | 
10 | < 100 |  | COc1cc(C)[nH]c(=O)c1CNC(=O)c1cc2c(-c3ccccc3)ccn2c(C(C)N2CCC(N(C)C)CC2)c1C (stereo not shown) [Example 129, N-((4,6-dimethyl-2-oxo-1,2-dihydropyridin-3-yl)methyl)-5-(1-(4-(dimethylamine)piperidine-1-yl)ethyl)-6-methyl-1-(1-methyl-1H-pyrazol-5-yl)indolizine-7-carboxamide] | 
11 | 100 to 1000 |  | Cc1cc(C)c(CNC(=O)c2cc3cc(Br)cn3c(C(C)N3CCC(N4CCCC4)CC3)c2C)c(=O)[nH]1 (stereo not shown) [Example 145, 2-bromo-N-((4,6-dimethyl-2-oxo-1,2-dihydropyridin-3-yl)methyl)-6-methyl-5-(1-(4-(pyrrolidin-1-yl)piperidin-1-yl)ethyl)indolizine-7-carboxamide] | 
12 | 100 to 1000 |  | C=C(C)COC(C)c1c(C)c(C(=O)NCc2c(C)cc(C)[nH]c2=O)cc2cccn12 (stereo not shown) [Example 5, N-((4,6-Dimethyl-2-oxo-1,2-dihydropyridin-3-yl)methyl)-6-methyl-5-(1-((2-methylallyl)oxy)ethyl)indolizine-7-carboxamide] | 

The remaining lines, values behind:

Row | Molecule | IC50 [1, 3] [nM] | IC50 [2] [nM] | IC50 [1] [nM]
13 | (S)-1-Chloro-N-((4,6-dimethyl-2-oxo-1,2-dihydropyridin-3-yl)methyl)-6-methyl-5-(1-morphinolinylethyl)pyridazin-7-carboxamide or (R)-1-chloro-N-((4,6-dimethyl-2-oxo-1,2-dihydro)pyridin-3-yl)methyl)-6-methyl-5-(1-morphinolinylethyl)pyridazin-7-carboxamide [Compound 29] | 100 to 1000 |  | 
14 | CCN(c1c(C)c(C(=O)NCc2c(C)cc(C)[nH]c2=O)cc2cc(-c3nccs3)cn12)C1CCOCC1 [Example 67, N-((4,6-dimethyl-2-oxo-1,2-dihydropyridin-3-yl)methyl)-5-(ethyl(tetrahydro-2H-pyran-4-yl)amino)-6-methyl-2-(thiazol-2-yl)indolizin-7-carboxamide] | 100 to 1000 |  | 
15 | COc1cc(C)[nH]c(=O)c1CNC(=O)c1cc2c(-c3ccc(C)nc3)ccn2c(C(C)N2CCN(CC(F)(F)F)CC2)c1C (stereo not shown) [Compound 192, N-((4-methoxy-6-methyl-2-oxo-1,2-dihydropyridin-3-yl)methyl)-6-methyl-1-(6-methylpyridin-3-yl)-5-(1-(4-(2,2,2-trifluoroethyl)piperazin-1-yl)ethyl)indolizine-7-carboxamide] | < 100 |  | 
16 | COc1cc(C)[nH]c(=O)c1CNC(=O)c1cc2c(-c3ccc(F)cc3)ccn2c(C(C)N2CCN(CC(F)(F)F)CC2)c1C (stereo not shown) [Compound 162, 1-(4-fluorophenyl)-N-((4-methoxy-6-methyl-2-oxo-1,2-dihydropyridin-3-yl)methyl)-6-methyl-5-(1-(4-(2,2,2-trifluoroethyl)piperazin-1-yl)ethyl)indolizine-7-carboxamide] |  |  | < 100
17 | COc1cc(C)[nH]c(=O)c1CNC(=O)c1cc2c(-c3ccc(C)nc3C)ccn2c([C@H](C)N2CCN(CC(F)(F)F)CC2)c1C (single isomer, unassigned) [Compound 178, (S)-1-(2,6-dimethylpyridin-3-yl)-N-((4-methoxy-6-methyl-2-oxo-1,2-dihydropyridine-3-yl)methyl)-6-methyl-5-(1-(4-(2,2,2-trifluoroethyl)piperazin-1-yl)ethyl)indolizine-7-carboxamide or (R) 1-(2,6-dimethylpyridin-3-yl)-N-((4-methoxy-6-methyl-2-oxo-1,2-dihydropyridine-3-yl)methyl)-6-methyl-5-(1-(4-(2,2,2-trifluoroethyl)piperazin-1-yl)ethyl)indolizine-7-carboxamide] | 100 to 1000 |  | 
18 | COc1cc(-c2cc3cc(C(=O)NCc4c(C)cc(C)[nH]c4=O)c(C)c(C(C)N4CCC(N(C)C)CC4)n3c2)cc(OC)c1OC (stereo not shown) [Example 92, N-((4,6-dimethyl-2-oxo-1,2-dihydropyridin-3-yl)methyl)-5-(1-(4-(dimethylamino)piperidine-1-yl)ethyl)-6-methyl-2-(3,4,5-trimethoxyphenyl)-indolizine-7-carboxamide] | < 100 |  | 
19 | Cc1cc(C)c(CNC(=O)c2cc3cc(-c4ccncc4)cn3c(C(C)N3CCC(N(C)C)CC3)c2C)c(=O)[nH]1 (stereo not shown) [Example 93, N-((4,6-dimethyl-2-oxo-1,2-dihydropyridin-3-yl)methyl)-5-(1-(4-(dimethylamino)piperidine-1-yl)ethyl)-6-methyl-2-(pyridin-4-yl)indolizine-7-carboxamide] |  |  | < 100
20 | Cc1cc(C)c(CNC(=O)c2cc3c(Br)ccn3c(C(C)N3CCOCC3)c2C)c(=O)[nH]1 (stereo not shown) [Example 53, N-((4,6-dimethyl-2-oxo-1,2-dihydropyridin-3-yl)methyl)-6-methyl-5-(1-morphinolinylethyl)-2-(4,5,6,7-tetrahydrothiazolo[5,4-c]pyridin-2-yl)indolizine-7-carboxamide] | < 100 |  | 
21 | COc1cc(C)[nH]c(=O)c1CNC(=O)c1cc2c(-c3ccn[nH]3)ccn2c(N(C)C2CCN(CC(F)(F)F)CC2)c1C [Compound 202, N-((4-methoxy-6-methyl-2-oxo-1,2-dihydropyridin-3-yl)methyl)-6-methyl-5-(methyl(1-(2,2,2-trifluoroethyl)piperidin-4-yl)amino)-1-(1H-pyrazol-5-yl)indolizine-7-carboxamide] | < 100 |  | 
